The target of data set [1] is T1, recombinant mouse APA (Mus musculus, UniProt P16406).
T1 sequence (P16406 1-945): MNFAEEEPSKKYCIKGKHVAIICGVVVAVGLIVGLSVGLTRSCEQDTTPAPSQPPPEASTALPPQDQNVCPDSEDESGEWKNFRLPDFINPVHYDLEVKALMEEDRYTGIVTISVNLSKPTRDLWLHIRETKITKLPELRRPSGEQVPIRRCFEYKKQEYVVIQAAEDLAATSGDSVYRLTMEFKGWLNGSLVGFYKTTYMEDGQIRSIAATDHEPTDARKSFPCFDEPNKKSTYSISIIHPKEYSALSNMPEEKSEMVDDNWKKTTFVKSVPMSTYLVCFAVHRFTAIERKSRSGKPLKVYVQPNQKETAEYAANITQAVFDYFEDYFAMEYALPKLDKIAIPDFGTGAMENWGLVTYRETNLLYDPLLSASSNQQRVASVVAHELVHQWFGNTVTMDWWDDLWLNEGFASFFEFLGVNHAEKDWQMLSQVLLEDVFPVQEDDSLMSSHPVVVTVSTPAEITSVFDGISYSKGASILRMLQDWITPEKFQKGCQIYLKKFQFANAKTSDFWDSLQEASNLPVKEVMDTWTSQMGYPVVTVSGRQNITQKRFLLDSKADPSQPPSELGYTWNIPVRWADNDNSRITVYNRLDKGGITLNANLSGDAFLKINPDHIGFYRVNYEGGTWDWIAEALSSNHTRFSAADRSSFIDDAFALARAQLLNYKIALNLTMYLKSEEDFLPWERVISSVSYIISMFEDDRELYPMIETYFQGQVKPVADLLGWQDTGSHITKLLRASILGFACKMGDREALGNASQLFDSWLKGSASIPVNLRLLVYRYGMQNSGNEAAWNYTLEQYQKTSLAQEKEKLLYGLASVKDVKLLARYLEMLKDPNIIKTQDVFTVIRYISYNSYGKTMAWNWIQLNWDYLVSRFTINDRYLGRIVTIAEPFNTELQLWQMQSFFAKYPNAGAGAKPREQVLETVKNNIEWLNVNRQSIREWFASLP
Description: Measurement of APA activity in vitro (GluβNa hydrolysis, microplate). The data set is classed as biochemical. Particulars: 200 μM Glu-βNa, pH 7.4, 37° C., read-out: In vitro inhibition of aminopeptidase A, IC50 classification. From the text: In vitro, in the presence of calcium ions, APA hydrolyses a synthetic substrate α-L-glutamyl-β-naphthylamide (GluβNa) to glutamate and β-naphthylamine (βNa). A diazotation reaction in acidic medium makes it possible to reveal the β-naphthylamine by formation of a violet-coloured complex: spectrophotometric measurement then makes it possible to know the amount of complex formed and, by reference to a standard curve produced with increasing concentrations of β-naphthylamine, to deduce the enzymatic activity of the sample.
The reaction takes place at pH 7.4 in 50 mM tris-HCl buffer, in the presence of calcium (4 mM CaCl2)); recombinant mouse APA is incubated at 37° C. in the presence of the substrate (200 μM Glu-βNa) and in the presence or absence of various concentrations of the inhibitor to be tested, in a final volume of 100 μL. The reaction is stopped by adding 10 μL of 3N HCl. A standard curve of β-naphthylamine was prepared in parallel by diazotizing increasing concentrations (up to 0.2 mM) of 2-naphthylamine in 0.1 N HCl.
The following are added to each well: 25 μL of sodium nitrite (NaNO2) (mix, wait 5 minutes at room temperature), 50 μL of ammonium sulfamate (mix, wait 5 minutes at room temperature), then add 25 μL of N-(1-naphthyl) ethylenediamine dihydrochloride (mix, wait for stabilization of the violet colour for approximately 30 minutes at 37° C.).
The absorbance is then measured at 540 nm.

For data set [2], the target named is T2, brain APA (Mus musculus, UniProt P16406).
T2 construct: from tissue; host or cells: mouse brain homogenate
T2 sequence (P16406 1-945): T1 sequence (P16406 1-945)
The experiment in a line: Measurement of brain APA activity ex vivo after i.v. administration. To be noted: for brain APA activity: 10 min. The data set is classed as in vivo, mice. The procedure: Brain APA activity was determined as described above.
In vivo, in mice (male, 18-20 g Charles River), Examples 22 and 52 were administered i.v. (5 mg/kg and 4 mg/kg respectively, in a volume of 200 μL). For each condition, five mice were used. Mice were sacrified 10, 30, 60, 120 and 180 min after the injection. The brains were immediately removed and homogenized by sonication in 10 vol of ice-cold 50 mM Tris-HCl buffer (pH 7.4). APA enzymatic activity was measured on brain homogenates. For this purpose, aliquots of the tissue homogenate (16 μL) were incubated for 30 min at 37° C. with 200 μM of GluβNA, 4 mM CaCl2, and 1 μM bestatin inhibitor, with or without 5 μM EC33, in a total volume of 100 μL of 50 mM Tris-HCl buffer (pH 7.4). Then the assay was pursued as described above.

Each structure is given as a SMILES string. Bounds are passed on as bounds.

The term IC50 denotes the midpoint of a concentration-inhibition curve.

On to `NC(CCC(=O)O)P(=O)(O)CCc1ccccc1` (stereo not shown) [Example 22, 4-amino-4-[hydroxy(2-phenylethyl)phosphoryl]butanoic acid], for which the IC50 in data set [1] was below 30 nM. The “brain APA activity maximally decreased by” value in data set [2] (5 mg/kg i.v., conscious mice, from 10 min until 60 min) worked out at 47%. Further, the “brain APA activity” value in data set [2] (5 mg/kg i.v., mice) is given as 37.5±3.3 nmol of GluNA hydrolyzed per mg of protein per h. Further, the “brain APA activity time course” value in data set [2] (5 mg/kg i.v., mice, after 120 min) is “return to basal values”. The “ability to cross the blood brain barrier and enter the brain” value in data set [2] (5 mg/kg i.v., mice, by inhibition of brain APA activity) was “cross the blood brain barrier (BBB) and to enter the brain”.

As for `COc1ccccc1CCP(=O)(O)[C@@H](N)CCC(=O)O.Cl` [Example 52, (1R)-3-carboxy-1-{hydroxy[2-(2-methoxyphenyl)ethyl]phosphoryl} propan-1-aminium chloride], in data set [1], the concentration for half-maximal inhibition (IC50) is below 30 nM. Further, the “brain APA activity” value in data set [2] (4 mg/kg i.v., mice) is given as 12.0±4.0 nmol of GluNA hydrolyzed per mg of protein per h. Moreover, the “ability to cross the BBB and enter the brain” value in data set [2] (4 mg/kg i.v., mice, by inhibition of brain APA activity) is “cross the BBB and to enter the brain”. For the same compound, in data set [2] (mouse, iv, 4 mg/kg i.v., mice, 120 min after the injection, read-out: brain APA activity inhibited by), the inhibition at 4 mg/kg was determined as 35%.

Consider `COc1cccc(CP(=O)(O)C(N)CCC(=O)O)c1` (stereo not shown) [Example 11, 4-amino-4-{hydroxy[(3-methoxyphenyl)methyl]phosphoryl}butanoic acid], for which the half-inhibitory concentration (IC50) in data set [1] was below 30 nM.

For the compound `NC(CCC(=O)O)P(=O)(O)CCc1ccc2ccccc2c1` (stereo not shown) [Example 30, 4-amino-4-{hydroxy[2-(naphthalen-2-yl)ethyl]phosphoryl}butanoic acid], the 50% inhibitory concentration (IC50) in data set [1] is below 30 nM.

Consider `NC(CCS(=O)(=O)O)P(=O)(O)Cc1cc(-c2ccccc2)no1` (stereo not shown) [Example 65, 3-amino-3-{hydroxy[(3-phenyl-1,2-oxazol-5-yl)methyl]phosphoryl}propane-1-sulfonic acid], for which the IC50 in data set [1] lay within 300 to 10000 nM.

As to `Cc1ccc(CCP(=O)(O)C(N)CCC(=O)O)cc1` (stereo not shown) [Example 25, 4-amino-4-{hydroxy[2-(4-methylphenyl)ethyl]phosphoryl}butanoic acid], in data set [1], the IC50 was below 30 nM.

Consider `NC(CCS(=O)(=O)O)P(=O)(O)CCCc1ccccc1` (stereo not shown) [Example 63, 3-amino-3-[hydroxy(3-phenylpropyl)phosphoryl]propane-1-sulfonic acid], for which, in data set [1], the IC50 was in the range of 300 to 10000 nM.

As to `Cc1cccc(CP(=O)(O)C(N)CCC(=O)O)c1` (stereo not shown) [Example 3, 4-amino-4-{hydroxy[(3-methylphenyl)methyl]phosphoryl}butanoic acid], in data set [1], the IC50 lay in the range of 30 to 300 nM.

As to `NC(CCC(=O)O)P(=O)(O)CCc1ccccc1OCc1ccccc1` (stereo not shown) [Example 48, 1-({2-[2-(benzyloxy)phenyl]ethyl}(hydroxy)phosphoryl)-3-carboxy propan-1-aminium chloride], in data set [1], the IC50 was below 30 nM.

Take `COc1ccccc1CP(=O)(O)C(N)CCS(=O)(=O)O` (stereo not shown) [Example 60, 3-amino-3-{hydroxy[(2-methoxyphenyl)methyl]phosphoryl}propane-1-sulfonic acid]: the concentration for half-maximal inhibition (IC50) in data set [1] lay within 30 to 300 nM.

With `NC(CCC(=O)O)P(=O)(O)CCc1ccccc1OC(F)(F)F` (stereo not shown) [Example 38, 4-amino-4-[hydroxy({2-[2-(trifluoromethoxy)phenyl]ethyl})phosphoryl]butanoic acid], the IC50 in data set [1] was below 30 nM.

On to `NC(CCC(=O)O)P(=O)(O)Cc1ccccc1-c1ccccc1` (stereo not shown) [Example 6, 4-amino-4-[({[1,1′-biphenyl]-2-yl}methyl)(hydroxy)phosphoryl]butanoic acid], for which the IC50 in data set [1] was in the range of 300 to 10000 nM.

Consider `NC(CCC(=O)O)P(=O)(O)Cc1ccc(OC(F)(F)F)cc1` (stereo not shown) [Example 8, 4-amino-4-[hydroxy({[4-(trifluoromethoxy)phenyl]methyl})phosphoryl]butanoic acid], for which the IC50 in data set [1] was 30 to 300 nM.

As for `NC(CCC(=O)O)P(=O)(O)CCc1ccccc1OC1CCCC1` (stereo not shown) [Example 36, 4-amino-4-({2-[2-(cyclopentyloxy)phenyl]ethyl}(hydroxy)phosphoryl) butanoic acid], the 50% inhibitory concentration (IC50) in data set [1] was below 30 nM.

Regarding `Cc1ccccc1CCP(=O)(O)C(N)CCC(=O)O` (stereo not shown) [Example 23, 4-amino-4-{hydroxy[2-(2-methylphenyl)ethyl]phosphoryl}butanoic acid], in data set [1], the half-inhibitory concentration (IC50) is below 30 nM.

`COc1ccc(CP(=O)(O)C(N)CCC(=O)O)cc1` (stereo not shown) [Example 12, 4-amino-4-{hydroxy[(4-methoxyphenyl)methyl]phosphoryl}butanoic acid]: the half-inhibitory concentration (IC50) in data set [1] fell in the range of 30 to 300 nM.

As to `COc1cccc(CCP(=O)(O)C(N)CCC(=O)O)c1` (stereo not shown) [Example 33, 4-amino-4-{hydroxy[2-(3-methoxyphenyl)ethyl]phosphoryl} butanoic acid], the half-inhibitory concentration (IC50) in data set [1] was below 30 nM.

For `CC(C)(CP(=O)(O)C(N)CCC(=O)O)c1ccccc1` (stereo not shown) [Example 27, 4-amino-4-[hydroxy(2-methyl-2-phenylpropyl)phosphoryl]butanoic acid], the IC50 in data set [1] lay within 300 to 10000 nM.

As to `NC(CCC(=O)O)P(=O)(O)CCn1ncc2ccccc21` (stereo not shown) [Example 47, 4-amino-4-{hydroxy[2-(1H-indazol-1-yl)ethyl]phosphoryl}butanoic acid], the IC50 in data set [1] was 300 to 10000 nM.

For the compound `NC(CCC(=O)O)P(=O)(O)Cc1ccccc1Oc1ccccc1` (stereo not shown) [Example 16, 4-amino-4-{hydroxy[(2-phenoxyphenyl)methyl]phosphoryl}butanoic acid], the IC50 in data set [1] was 30 to 300 nM.

Take `NC(CCC(=O)O)P(=O)(O)Cc1ccc(Oc2ccccc2)cc1` (stereo not shown) [Example 18, 4-amino-4-{hydroxy[(4-phenoxyphenyl)methyl]phosphoryl}butanoic acid]: in data set [1], the concentration for half-maximal inhibition (IC50) lay in the range of 30 to 300 nM.

On to `Cn1cc(CCP(=O)(O)C(N)CCC(=O)O)c2ccccc21` (stereo not shown) [Example 42, 3-carboxy-1-{hydroxy[2-(1-methyl-1H-indol-3-yl)ethyl]phosphoryl}propan-1-aminium chloride], for which the IC50 in data set [1] lay within 30 to 300 nM.

Turning to `N#Cc1cccc(CP(=O)(O)C(N)CCC(=O)O)c1` (stereo not shown) [Example 13, 4-amino-4-{[(3-cyanophenyl)methyl](hydroxy)phosphoryl}butanoic acid], the IC50 in data set [1] is 30 to 300 nM.

In the case of `NC(CCC(=O)O)P(=O)(O)CCc1ccccc1Oc1ccccc1` (stereo not shown) [Example 35, 4-amino-4-{hydroxy[2-(2-phenoxyphenyl)ethyl]phosphoryl}butanoic acid], the IC50 in data set [1] was below 30 nM.

For `NC(CCC(=O)O)P(=O)(O)CCc1cccc(Cl)c1Cl` (stereo not shown) [Example 40, 4-amino-4-{[2-(2,3-dichlorophenyl)ethyl](hydroxy)phosphoryl}butanoic acid], in data set [1], the IC50 was below 30 nM.

In the case of `NC(CCCS(=O)(=O)O)P(=O)(O)CCc1ccccc1` (stereo not shown) [Example 67, 4-amino-4-[hydroxy(2-phenylethyl)phosphoryl]butane-1-sulfonic acid], in data set [1], the IC50 lay in the range of 30 to 300 nM.

For the compound `NC(CCS(=O)(=O)O)P(=O)(O)Cc1cccc(-c2ccccc2)c1` (stereo not shown) [Example 64, 3-amino-3-[({[1,1′-biphenyl]-3-yl}methyl)(hydroxy)phosphoryl]propane-1-sulfonic acid], the concentration for half-maximal inhibition (IC50) in data set [1] lay within 300 to 10000 nM.

The record behind these values is patent US11192907B2, “Aminopeptidase A inhibitors and pharmaceutical compositions comprising the same” (QUANTUM GENOMICS, priority 2018, dated 2021).
